Source: patent US20230174521A1, “NOVEL DIACYLGLYCERIDE O-ACYLTRANSFERASE 2 INHIBITORS” (Merck Sharp & Dohme LLC, priority 2020, published 2023)

Each compound was assayed against T1, human DGAT2 (hDGAT2) (Homo sapiens, UniProt Q96PD7) (assay: DGAT2 enzymatic activity assay (LC/MS/MS detection of 13C18-triolein, Sf-9 membrane prep)). Conditions: hDGAT2 Sf-9 membrane, 25 μM diolein, 5 μM 13C oleoyl-CoA, rt.
T1 construct: made in house; host or cells: Sf-9 insect cells (baculovirus infection); membrane fraction
T1 sequence (Q96PD7 1-388): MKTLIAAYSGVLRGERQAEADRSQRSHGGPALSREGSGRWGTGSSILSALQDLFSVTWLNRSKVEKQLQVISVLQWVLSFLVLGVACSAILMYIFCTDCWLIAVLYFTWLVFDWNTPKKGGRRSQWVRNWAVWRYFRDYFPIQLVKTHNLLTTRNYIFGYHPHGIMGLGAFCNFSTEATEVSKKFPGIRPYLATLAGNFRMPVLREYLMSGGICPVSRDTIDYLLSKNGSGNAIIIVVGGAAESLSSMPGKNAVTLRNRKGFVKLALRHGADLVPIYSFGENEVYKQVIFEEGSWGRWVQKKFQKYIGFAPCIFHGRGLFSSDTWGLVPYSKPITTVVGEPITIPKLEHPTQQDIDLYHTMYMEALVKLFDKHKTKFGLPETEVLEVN
Type: biochemical
Experimental: Sf-9 insect cells were maintained in Grace's insect cell culture medium with 10% heated-inactivated fetal bovine serum, 1% Pluronic F-68 and 0.14 μg/ml Kanamycine sulfate at 27° C. in a shaker incubator. After infection with untagged baculovirus expressing human DGAT2 (hDGAT2) at multiplicity of infection (MOI) 3 for 48 hours, cells were harvested. Cell pellets were suspended in buffer containing 10 mM Tris-HCl pH 7.5, 1 mM EDTA, 250 mM sucrose and Complete Protease Inhibitor Cocktail (Sigma Aldrich), and sonicated on ice. Cell debris were removed by centrifugation at 2000×g for 15 minutes. Membrane fractions were isolated by ultracentrifugation (100,000×g), resuspended in the same buffer, and frozen (−80° C.) for later use. The protein concentration was determined with the Pierce™ BCA Protein Assay Kit (Thermo Fisher Scientific). Expression of protein levels was analyzed by immunoblotting with rabbit anti-DGAT2 antibody (Abcam, ab102831) and donkey anti-rabbit IgG H&L Alexa Fluor® 647 (Abcam, ab150075) followed by detection using Typhoon FLA9000 (GE Healthcare).
LC/MS/MS analyses were performed using Thermal Fisher's LX4-TSQ Vantage system. This system consists of an Agilent binary high-performance liquid chromatography (HPLC) pumps and a TSQ Vantage triple quadrupole MS/MS instrument. For each sample, 2 μL samples from the top organic layer of in-plate liquid-liquid extraction were injected onto a Thermo Betabasic C4 column (2.1 mm×20 mm, 5 μm particle size). The samples were then eluted using the following conditions; mobile phase: Isopropanol: acetonitrile/10 mM ammonium formate=50/35/15 (v/v/v), flow rate: 0.8 mL/min, temperature: 25° C. Data was acquired in positive mode using a heated electrospray ionization (HESI) interface. The operational parameters for the TSQ Vantage MS/MS instrument were a spray voltage of 3000 V, capillary temperature of 280° C., vaporizer temperature 400° C., sheath gas 45 arbitrary unit, Aux gas 10 arbitrary units, S-lens 165 and collision gas 1.0 mTorr. […] (SRM) chromatograms of ^13C18-triolein (Q1: 920.8>Q3:621.3) and internal standard ^13C21-triolein (Q1: 923.8>Q3:617.3) were collected for 33 sec. The peak area was integrated by Xcalibur Quan software. The ratio between the ^13C18triolein generated in the reaction and spiked in internal standard ^13C21-triolein was used to generate percentage inhibition and IC50 values. Compound percentage inhibition was calculated by the following formula: Inhibition %=1−[(compound response−low control)/(high control−low control)]×100%. Potent compounds were titrated and IC50 were calculated by 4 parameter sigmoidal curve fitting formula.
DGAT2 activity was determined by measuring the amount of enzymatic product ^13C18-triolein (^13C-1,2,3-Tri(cis-9-octadecenoyl)glycerol) using the membrane prep mentioned above. The assay was carried out in ABgene 384-well assay plates in a final volume of 25 μL at rt. The assay mixture contained the following: assay buffer (100 mM Tris.Cl, pH 7.0, 20 mM MgCl2, 5% ethanol), 25 μM of diolein, 5 μM of ^13C oleoyl-CoA and 8 ng/μL of DGAT2 membrane.

Compared with CC1(NC(=O)c2cc(Cl)c3c(c2)c(C(C)(C)O)nn3-c2cccc(OC(F)F)c2)CS(=O)(=O)C1 [Example 35, 7-chloro-1-(3-(difluoromethoxy)phenyl)-3-(2-hydroxypropan-2-yl)-N-(3-methy1-l,1-dioxidothietan-3-yl)-1H-indazole-5-carboxamide], Cc1cc(C(=O)NC2(C)CS(=O)(=O)C2)cc2c(C(C)(C)O)nn(-c3cccc(OC(F)F)c3)c12 [Example 36, 1-(3-(difluoromethoxy)phenyl)-3-(2-hydroxypropan-2-yl)-7-methyl-N-(3-methyl-1,1-dioxidothietan-3-yl)-1H-indazole-5-carboxamide] is 6.5-fold higher in IC50: 0.0091 µM for the first, 0.059 µM for the second. The first is the more potent here.

Compared with CC1(NC(=O)c2cc(F)c3c(c2)c(C(C)(C)O)nn3-c2cccc(OC(F)F)c2)CS(=O)(=O)C1 [Example 37, l-(3-(difluoromethoxy)phenyl)-7-fluoro-3-(2-hydroxypropan-2-yl)-N-(3-methyl-1,1-dioxidothietan-3-yl)-1H-indazole-5-carboxamide], CC1(NC(=O)c2cnc3c(c2)c(C(C)(C)O)nn3-c2cc(OC(F)F)ccc2F)CS(=O)(=O)C1 [Example 41, l-(5-(difluoromethoxy)-2-fluorophenyl)-3-(2-hydroxypropan-2-yl)-N-(3-methyl-1,1-dioxidothietan-3-yl)-1H-pyrazolo[3,4-b]pyridine-5-carboxamide] is 1.7-fold higher in IC50: 0.015 µM for the first, 0.025 µM for the second.

First: CC1(NC(=O)c2cnc3c(c2)c(C2(O)CCC2)nn3-c2cccc(OC(F)F)c2)CS(=O)(=O)C1 [Example 39, l-(3-(difluoromethoxy)phenyl)-3-(l-hydroxycyclobutyl)-N-(3-methyl-1,1-dioxidothietan-3-yl)-lH-pyrazolo[3,4-b]pyridine-5-carboxamide]
Second: CC1(NC(=O)c2cnc3c(c2)c(C(C)(O)C(F)F)nn3-c2cccc(OC(F)F)c2)CS(=O)(=O)C1 (stereo not drawn) [Example 43, 3-(1,1-difluoro-2-hydroxypropan-2-yl)-1-(3 - (difluoromethoxy)phenyl)-N-(3-methyl-1,1-dioxidothietan-3-yl)-1H-pyrazolo[3,4-b]pyridine-5-carboxamide]
The IC50 of the first is 7.9-fold lower: 0.015 µM for the first, 0.118 µM for the second. The first is the more potent here.

Going from CC1(NC(=O)c2cnc3c(c2)c(C(C)(C)O)nn3-c2cc(OC(F)(F)F)ccc2F)CS(=O)(=O)C1 [Example 40, l-(2-fluoro-5-(trifluoromethoxy)phenyl)-3-(2-hydroxypropan-2-yl)-N-(3-methyl-1,1-dioxidothietan-3-yl)-1H-pyrazolo[3,4-b]pyridine-5-carboxamide] to CC1(NC(=O)c2cnc3c(c2)c(C(C)(C)O)nn3-c2cccc(OC(F)(F)F)c2)CS(=O)(=O)C1 [Example 42, 3-(2-hydroxypropan-2-yl)-N-(3-methyl-1,1-dioxidothietan-3-yl)-1-(3-(trifluoromethoxy)phenyl)-1H-pyrazolo[3,4-b]pyridine-5-carboxamide], the IC50 rises from 0.014 µM to 0.107 µM (7.6-fold). The first is the more potent here.

First: CC1(NC(=O)c2cnc3c(c2)c(C(C)(C)O)nn3-c2cc(OCC(F)F)ncc2F)CCS(=O)(=O)CC1 [Example 44, 1-(2-(2,2-difluoroethoxy)-5-fluoropyridin-4-yl)-3-(2-hydroxypropan-2-yl)-N-(4-methyl-1,1-dioxidotetrahydro-2H-thiopyran-4-yl)-1H-pyrazolo[3,4-b]pyridine-5-carboxamide]
Second: CC1(NC(=O)c2cnc3c(c2)c(C(C)(C)O)nn3-c2cc(OCC(F)F)ncc2F)CS(=O)(=O)C1 [Example 45, 1-(2-(2,2-difluoroethoxy)-5-fluoropyridin-4-yl)-3-(2-hydroxypropan-2-yl)-N-(3-methyl-1,1-dioxidothietan-3-yl)-1H-pyrazolo[3,4-b]pyridine-5-carboxamide]
The IC50 of the first is 4.8-fold lower: 0.0027 µM for the first, 0.013 µM for the second.

First: CC1(NC(=O)c2cnc3c(c2)c(C(C)(C)O)nn3-c2cc(OC(F)F)ncc2F)CS(=O)(=O)C1 [Example 46, l-(2-(difluoromethoxy)-5-fluoropyridin-4-yl)-3-(2-hydroxypropan-2-yl)-N-(3-methyl-1,1-dioxidothietan-3-yl)-1H-pyrazolo[3,4-b]pyridine-5-carboxamide]
Second: CC1(NC(=O)c2cnc3c(c2)c(C(C)(C)O)nn3-c2cncc(OC(F)F)c2)CS(=O)(=O)C1 [Example 47, 1-(5-(difluoromethoxy)pyridin-3-yl)-3-(2-hydroxypropan-2-yl)-N-(3-methyl-1,1-dioxidothietan-3-yl)-1H-pyrazolo[3,4-b]pyridine-5-carboxamide]
The IC50 of the first is 2.9-fold lower: 0.031 µM for the first, 0.091 µM for the second. The first is the more potent here.

C[C@]1(NC(=O)c2ccc3c(c2)c(N2CCOCC2)nn3-c2cccc(OC(F)F)c2)CCS(=O)(=O)C1 [Example 48, (S)-1-[3-(difluoromethoxy)phenyl]-N-(3-methyl-1,1-dioxo-thiolan-3-yl)-3-morpholino-indazole-5-carboxamide] and C[C@]1(NC(=O)c2ccc3c(c2)c(N2CCC[C@H]2C(=O)O)nn3-c2cccc(OC(F)F)c2)CCS(=O)(=O)C1 [Example 49, (2S)-1-[1-[3-(difluoromethoxy)phenyl]-5-[[(3S)-3-methyl-1,1-dioxo-thiolan-3-yl]carbamoyl]indazol-3-yl]pyrrolidine-2-carboxylic acid] are within 1.5-fold of each other in IC50: 0.375 µM for the first, 0.351 µM for the second.

Going from CC(C)Nc1nn(-c2cccc(OC(F)F)c2)c2ccc(C(=O)NC3(C)CS(=O)(=O)C3)cc12 [Example 50] to CC1(NC(=O)c2ccc3c(c2)c(NS(C)(=O)=O)nn3-c2cccc(OC(F)F)c2)CS(=O)(=O)C1 [Example 51], the IC50 rises from 0.041 µM to > 10 µM. The first is the more potent here.

Going from COc1ccc(-n2nc(NCCc3ccccc3)c3cc(C(=O)NCCCN(C)C)ccc32)cc1 [Example 52, N-(3-(dimethylamino)propyl)-1-(4-methoxyphenyl)-3-(phenethylamino)-1H-indazole-5-carboxamide] to C[C@]1(NC(=O)c2ccc3c(c2)c(Oc2ccc(F)cc2)nn3-c2cccc(OC(F)F)c2)CCS(=O)(=O)C1 [Example 54, (S)-1-(3-(difluoromethoxy)phenyl)-3-(4-fluorophenoxy)-N-(3-methyl-1,1-dioxidotetrahydrothiophen-3-yl)-1H-indazole-5-carboxamide], the IC50 falls from 4.32 µM to 0.0003 µM (14000-fold). The second is the more potent here.

First: C[C@]1(NC(=O)c2ccc3c(c2)c(S(C)(=O)=O)nn3-c2cccc(OC(F)F)c2)CCS(=O)(=O)C1 [Example 53, (S)-1-(3-(difluoromethoxy)phenyl)-N-(3-methyl-1,1-dioxidotetrahydrothiophen-3-yl)-3-(methylsulfonyl)-1H-indazole-5-carboxamide]
Second: CC1(NC(=O)c2ccc3c(c2)c(O)nn3-c2cccc(OC(F)F)c2)CS(=O)(=O)C1 [Example 56]
The IC50 of the first is lower: 0.543 µM for the first, > 10 µM for the second. The first is the more potent here.

Work on CC(C)Oc1nn(-c2cc(OC(F)F)ccc2F)c2ncc(C(=O)NC3(C)CS(=O)(=O)C3)cc12 [Example 55, 1-(5-(difluoromethoxy)-2-fluorophenyl)-3-isopropoxy-N-(3-methyl-1,1-dioxidothietan-3-yl)-1H-pyrazolo[3,4-b]pyridine-5-carboxamide] yielded an IC50 of 0.093 µM.
